Assay results reported in ChEMBL document CHEMBL4052831, “The Discovery of N-(1-Methyl-5-(trifluoromethyl)-1H-pyrazol-3-yl)-5-((6- ((methylamino)methyl)pyrimidin-4-yl)oxy)-1H-indole-1-carboxamide (Acrizanib), a VEGFR-2 Inhibitor Specifically Designed for Topical Ocular Delivery, as a Therapy for Neovascular Age-Related Macular Degeneration” (J Med Chem, 2018).
Converted amounts (≈) assume the structure as drawn. Each block holds one compound with its values, some of them ahead of it. The source made the active and inactive calls. The rule behind the calls is not given here.

Key:
[1] = AUC (0 to last) in posterior eye cup of Brown Norway rat administered 0.3% suspension using 4 uL topical drop to both eyes as single dose by LC-MS/MS analysis; format: ADME; details: topical or ocular, 4 uL of 0.3% suspension per eye
[2] = Cmax in posterior eye cup of Brown Norway rat administered 0.3% suspension using 4 uL topical drop to both eyes as single dose by LC-MS/MS analysis; format: ADME; details: topical or ocular, 4 uL of 0.3% suspension per eye
[3] = AUC (0 to last) in retina of Brown Norway rat administered 0.3% suspension using 4 uL topical drop to both eyes as single dose by LC-MS/MS analysis; format: ADME, tissue-based; design: dose 4 uL, time 0 - last, route ophthalmic; details: topical or ocular, 4 uL of 0.3% suspension per eye
[4] = Cmax in retina of Brown Norway rat administered 0.3% suspension using 4 uL topical drop to both eyes as single dose by LC-MS/MS analysis; format: ADME, tissue-based; design: dose 4 uL, route ophthalmic; details: topical or ocular, 4 uL of 0.3% suspension per eye
[5] = AUC (0 to last) in plasma of Brown Norway rat administered 0.3% suspension using 4 uL topical drop to both eyes as single dose by LC-MS/MS analysis; format: ADME; design: dose 4 uL, time 0 - last, route ophthalmic; details: topical or ocular, 4 uL of 0.3% suspension per eye
[6] = Cmax in plasma of Brown Norway rat administered 0.3% suspension using 4 uL topical drop to both eyes as single dose by LC-MS/MS analysis; format: ADME; design: dose 4 uL, route ophthalmic; details: topical or ocular, 4 uL of 0.3% suspension per eye
[7] = AUC (0 to last) in posterior eye cup of Brown Norway rat administered 0.3% suspension using 4 uL topical drop to both eyes every 3 hrs for 9 hrs over 10 days and single drop to each eye on day 11 by LC-MS/MS analysis; format: ADME; details: topical or ocular, 4 uL of 0.3% suspension per eye
[8] = Cmax in posterior eye cup of Brown Norway rat administered 0.3% suspension using 4 uL topical drop to both eyes every 3 hrs for 9 hrs over 10 days and single drop to each eye on day 11 by LC-MS/MS analysis; format: ADME; details: topical or ocular, 4 uL of 0.3% suspension per eye
[9] = AUC (0 to last) in retina of Brown Norway rat administered 0.3% suspension using 4 uL topical drop to both eyes every 3 hrs for 9 hrs over 10 days and single drop to each eye on day 11 by LC-MS/MS analysis; format: ADME; details: topical or ocular, 4 uL of 0.3% suspension per eye
[10] = Cmax in retina of Brown Norway rat administered 0.3% suspension using 4 uL topical drop to both eyes every 3 hrs for 9 hrs over 10 days and single drop to each eye on day 11 by LC-MS/MS analysis; format: ADME; details: topical or ocular, 4 uL of 0.3% suspension per eye
[11] = AUC (0 to last) in plasma of Brown Norway rat administered 0.3% suspension using 4 uL topical drop to both eyes every 3 hrs for 9 hrs over 10 days and single drop to each eye on day 11 by LC-MS/MS analysis; format: ADME; details: topical or ocular, 4 uL of 0.3% suspension per eye
[12] = Cmax in plasma of Brown Norway rat administered 0.3% suspension using 4 uL topical drop to both eyes every 3 hrs for 9 hrs over 10 days and single drop to each eye on day 11 by LC-MS/MS analysis; format: ADME; details: topical or ocular, 4 uL of 0.3% suspension per eye
[13] = Intrinsic clearance in rat liver microsomes at 1 uM after 5 to 30 mins by LC-MS/MS analysis; format: ADME, microsome; details: read-out: CLH
Rattus norvegicus [14] = experiment: Antiangiogenic activity in Brown Norway rat laser-induced choroidal neovascularization model assessed as inhibition of neovascularization administered 3% suspension using 4 uL topical drop to both eyes every 4.5 hrs for 9 hrs by microscopic analysis; format: functional
Rattus norvegicus [15] = experiment: Antiangiogenic activity in Brown Norway rat laser-induced choroidal neovascularization model assessed as inhibition of neovascularization administered topical drop to both eyes as qd by microscopic analysis; format: functional
Rattus norvegicus [16] = experiment: Antiangiogenic activity in Brown Norway rat laser-induced choroidal neovascularization model assessed as inhibition of neovascularization administered both eyes every 3 hrs for 9 hrs by microscopic analysis; format: functional
Rattus norvegicus [17] = experiment: Antiangiogenic activity in Brown Norway rat laser-induced choroidal neovascularization model assessed as inhibition of neovascularization administered both eyes every 4.5 hrs for 9 hrs by microscopic analysis; format: functional
[18] = AUC (0 to 6 hrs) in cynomolgus monkey plasma administered 1% solution using 30 uL topical drop to both eyes as single dose by LC-MS/MS analysis; format: ADME, Macaca fascicularis; design: time < 6 hr, dose 30 uL, route ophthalmic; details: topical or ocular, 30 uL of 1% solution per eye
[19] = Cmax in cynomolgus monkey plasma administered 1% solution using 30 uL topical drop to both eyes as single dose by LC-MS/MS analysis; format: ADME, Macaca fascicularis; design: dose 30 uL, route ophthalmic; details: topical or ocular, 30 uL of 1% solution per eye
[20] = Half life in cynomolgus monkey plasma administered 1% solution using 30 uL topical drop to both eyes as single dose by LC-MS/MS analysis; format: ADME, Macaca fascicularis; details: topical or ocular, 30 uL of 1% solution per eye
[21] = Tmax in cynomolgus monkey plasma administered 1% solution using 30 uL topical drop to both eyes as single dose by LC-MS/MS analysis; format: ADME, Macaca fascicularis; details: topical or ocular, 30 uL of 1% solution per eye
[22] = AUC (0 to 6 hrs) in cynomolgus monkey plasma administered 1% suspension using 30 uL topical drop to both eyes as single dose by LC-MS/MS analysis; format: ADME, Macaca fascicularis; design: time < 6 hr, dose 30 uL, route ophthalmic; details: topical or ocular, 30 uL of 1% suspension per eye
[23] = Cmax in cynomolgus monkey plasma administered 1% suspension using 30 uL topical drop to both eyes as single dose by LC-MS/MS analysis; format: ADME, Macaca fascicularis; design: dose 30 uL, route ophthalmic; details: topical or ocular, 30 uL of 1% suspension per eye
[24] = Half life in cynomolgus monkey plasma administered 1% suspension using 30 uL topical drop to both eyes as single dose by LC-MS/MS analysis; format: ADME, Macaca fascicularis; details: topical or ocular, 30 uL of 1% suspension per eye
[25] = Tmax in cynomolgus monkey plasma administered 1% suspension using 30 uL topical drop to both eyes as single dose by LC-MS/MS analysis; format: ADME, Macaca fascicularis; details: topical or ocular, 30 uL of 1% suspension per eye
Mus musculus = experiment: Antiangiogenic activity in C57BL/6 mouse laser-induced choroidal neovascularization model assessed as inhibition of neovascularization administered 1% suspension using 3.5 uL topical drop to both eyes every 3 hrs for 9 hrs by microscopic analysis
Rattus norvegicus [26] = experiment: Antiangiogenic activity in Brown Norway rat laser-induced choroidal neovascularization model assessed as inhibition of neovascularization administered 1% suspension using 4 uL topical drop to both eyes every 3 hrs for 9 hrs by microscopic analysis
Rattus norvegicus [27] = experiment: Antiangiogenic activity in Brown Norway rat laser-induced choroidal neovascularization model assessed as inhibition of neovascularization administered 0.09% suspension using 4 uL topical drop to both eyes every 3 hrs for 9 hrs by microscopic analysis; format: functional
[28] = Solubility of compound at pH 7.4; format: physicochemical; details: buffer
Rattus norvegicus [29] = experiment: Antiangiogenic activity in Brown Norway rat laser-induced choroidal neovascularization model assessed as inhibition of neovascularization administered 0.1% solution to both eyes every 3 hrs for 9 hrs by microscopic analysis; format: functional
[30] = target: Platelet-derived growth factor receptor alpha (Homo sapiens, UniProt P16234); experiment: Inhibition of human PDGFRalpha
Platelet-derived growth factor receptor alpha, sequence (P16234 whole entry): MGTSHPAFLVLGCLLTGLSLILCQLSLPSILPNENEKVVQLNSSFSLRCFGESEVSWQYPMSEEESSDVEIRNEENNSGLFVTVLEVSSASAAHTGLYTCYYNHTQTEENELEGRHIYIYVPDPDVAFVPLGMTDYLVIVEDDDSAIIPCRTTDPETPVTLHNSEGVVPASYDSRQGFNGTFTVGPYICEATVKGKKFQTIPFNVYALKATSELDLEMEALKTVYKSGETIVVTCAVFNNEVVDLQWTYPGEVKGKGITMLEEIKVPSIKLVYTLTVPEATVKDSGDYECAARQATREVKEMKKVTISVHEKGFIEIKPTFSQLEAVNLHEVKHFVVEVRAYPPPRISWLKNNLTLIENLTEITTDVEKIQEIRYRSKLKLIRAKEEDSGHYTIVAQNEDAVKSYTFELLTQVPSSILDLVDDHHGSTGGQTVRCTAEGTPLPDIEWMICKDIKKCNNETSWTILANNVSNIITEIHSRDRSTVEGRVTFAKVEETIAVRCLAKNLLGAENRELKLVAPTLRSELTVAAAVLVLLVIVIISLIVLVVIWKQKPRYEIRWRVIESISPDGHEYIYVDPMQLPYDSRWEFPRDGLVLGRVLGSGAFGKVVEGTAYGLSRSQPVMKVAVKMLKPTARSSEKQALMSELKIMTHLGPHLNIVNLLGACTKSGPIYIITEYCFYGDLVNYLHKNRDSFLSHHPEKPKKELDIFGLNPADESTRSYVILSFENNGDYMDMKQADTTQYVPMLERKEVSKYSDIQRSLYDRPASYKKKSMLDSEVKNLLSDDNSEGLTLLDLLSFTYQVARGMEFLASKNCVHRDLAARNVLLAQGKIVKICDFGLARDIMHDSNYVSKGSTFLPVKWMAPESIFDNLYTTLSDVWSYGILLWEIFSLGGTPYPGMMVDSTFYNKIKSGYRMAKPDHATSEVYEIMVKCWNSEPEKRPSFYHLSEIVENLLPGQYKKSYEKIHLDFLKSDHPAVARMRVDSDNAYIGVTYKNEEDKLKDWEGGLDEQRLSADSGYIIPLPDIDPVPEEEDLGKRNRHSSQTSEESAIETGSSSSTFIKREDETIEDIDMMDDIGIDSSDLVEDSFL

[31] = target: Proto-oncogene tyrosine-protein kinase receptor Ret (Homo sapiens, UniProt P07949); experiment: Inhibition of human RET
Proto-oncogene tyrosine-protein kinase receptor Ret, sequence (P07949 whole entry): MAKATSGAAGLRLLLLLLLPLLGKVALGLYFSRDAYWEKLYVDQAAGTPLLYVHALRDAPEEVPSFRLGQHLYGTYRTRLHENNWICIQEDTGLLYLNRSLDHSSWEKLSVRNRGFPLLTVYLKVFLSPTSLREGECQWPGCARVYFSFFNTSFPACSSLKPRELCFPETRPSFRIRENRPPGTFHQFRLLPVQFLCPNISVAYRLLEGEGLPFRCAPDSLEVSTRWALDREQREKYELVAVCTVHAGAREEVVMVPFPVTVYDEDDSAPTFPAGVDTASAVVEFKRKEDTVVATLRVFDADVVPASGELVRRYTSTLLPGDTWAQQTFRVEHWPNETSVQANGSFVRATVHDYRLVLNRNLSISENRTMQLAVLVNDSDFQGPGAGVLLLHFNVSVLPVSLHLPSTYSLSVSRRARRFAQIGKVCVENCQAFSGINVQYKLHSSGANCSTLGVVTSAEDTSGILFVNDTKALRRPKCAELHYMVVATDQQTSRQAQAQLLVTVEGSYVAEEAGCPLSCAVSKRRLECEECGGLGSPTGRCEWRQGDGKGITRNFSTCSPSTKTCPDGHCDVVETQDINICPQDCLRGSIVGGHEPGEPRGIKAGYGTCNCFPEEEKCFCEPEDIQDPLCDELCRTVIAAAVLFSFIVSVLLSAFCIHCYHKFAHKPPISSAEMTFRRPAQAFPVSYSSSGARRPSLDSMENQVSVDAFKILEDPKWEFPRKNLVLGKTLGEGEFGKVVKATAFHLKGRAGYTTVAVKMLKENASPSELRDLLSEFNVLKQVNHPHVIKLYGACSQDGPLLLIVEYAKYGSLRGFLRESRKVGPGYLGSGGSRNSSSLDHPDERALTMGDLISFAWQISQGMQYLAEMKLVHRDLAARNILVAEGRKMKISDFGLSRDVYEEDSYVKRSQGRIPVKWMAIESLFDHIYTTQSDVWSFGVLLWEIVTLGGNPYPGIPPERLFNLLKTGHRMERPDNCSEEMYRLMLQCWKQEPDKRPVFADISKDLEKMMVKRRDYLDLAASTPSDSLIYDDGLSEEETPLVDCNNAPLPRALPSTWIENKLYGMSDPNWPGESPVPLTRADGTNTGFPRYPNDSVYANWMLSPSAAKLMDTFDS

[32] = target: Mast/stem cell growth factor receptor Kit (Homo sapiens, UniProt P10721); experiment: Inhibition of human KIT
Mast/stem cell growth factor receptor Kit, sequence (P10721 whole entry): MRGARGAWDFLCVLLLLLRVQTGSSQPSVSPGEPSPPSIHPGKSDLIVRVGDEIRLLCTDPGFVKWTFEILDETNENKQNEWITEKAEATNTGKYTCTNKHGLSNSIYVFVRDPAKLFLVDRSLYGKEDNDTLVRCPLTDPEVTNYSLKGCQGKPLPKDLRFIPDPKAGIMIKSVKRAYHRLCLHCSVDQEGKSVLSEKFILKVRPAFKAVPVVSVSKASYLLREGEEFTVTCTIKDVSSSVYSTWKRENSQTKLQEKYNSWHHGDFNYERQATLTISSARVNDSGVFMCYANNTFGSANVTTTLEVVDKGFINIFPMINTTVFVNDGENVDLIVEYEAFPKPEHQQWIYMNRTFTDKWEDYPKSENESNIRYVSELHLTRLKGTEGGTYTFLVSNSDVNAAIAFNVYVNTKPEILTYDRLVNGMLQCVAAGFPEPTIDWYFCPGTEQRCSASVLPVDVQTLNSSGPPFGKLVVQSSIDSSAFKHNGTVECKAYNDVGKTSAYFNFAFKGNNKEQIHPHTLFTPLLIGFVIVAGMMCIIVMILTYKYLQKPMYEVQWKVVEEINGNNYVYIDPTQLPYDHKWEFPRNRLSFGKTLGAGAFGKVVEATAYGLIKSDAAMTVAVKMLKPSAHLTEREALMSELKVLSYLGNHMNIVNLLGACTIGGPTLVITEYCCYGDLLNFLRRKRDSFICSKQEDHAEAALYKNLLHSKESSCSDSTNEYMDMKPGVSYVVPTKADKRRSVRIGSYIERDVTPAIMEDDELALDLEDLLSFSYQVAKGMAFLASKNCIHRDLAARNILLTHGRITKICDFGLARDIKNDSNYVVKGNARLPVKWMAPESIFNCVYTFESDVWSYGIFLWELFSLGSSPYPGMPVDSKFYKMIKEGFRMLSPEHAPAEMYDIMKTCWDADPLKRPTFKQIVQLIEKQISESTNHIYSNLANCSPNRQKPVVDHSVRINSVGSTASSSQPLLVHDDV

[33] = target: Tyrosine-protein kinase Lyn (Homo sapiens, UniProt P07948); experiment: Inhibition of human LYN
Tyrosine-protein kinase Lyn, sequence (P07948 whole entry): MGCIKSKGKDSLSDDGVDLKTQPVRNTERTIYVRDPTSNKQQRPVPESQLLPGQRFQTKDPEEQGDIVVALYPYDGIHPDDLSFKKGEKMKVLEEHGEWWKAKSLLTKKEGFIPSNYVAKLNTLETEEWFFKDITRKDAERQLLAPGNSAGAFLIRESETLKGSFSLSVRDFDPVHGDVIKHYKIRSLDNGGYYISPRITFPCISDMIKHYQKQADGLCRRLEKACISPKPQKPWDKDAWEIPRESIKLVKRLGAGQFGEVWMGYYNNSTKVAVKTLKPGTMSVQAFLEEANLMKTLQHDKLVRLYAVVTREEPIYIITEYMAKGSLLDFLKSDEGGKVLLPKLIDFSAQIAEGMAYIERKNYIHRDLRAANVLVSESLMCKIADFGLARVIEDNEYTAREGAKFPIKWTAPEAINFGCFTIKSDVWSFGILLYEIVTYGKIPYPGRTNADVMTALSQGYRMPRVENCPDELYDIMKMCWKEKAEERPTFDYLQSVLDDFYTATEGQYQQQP

[34] = target: Tyrosine-protein kinase ABL1 (Homo sapiens, UniProt P00519); experiment: Inhibition of human ABL
Tyrosine-protein kinase ABL1, sequence (P00519 whole entry): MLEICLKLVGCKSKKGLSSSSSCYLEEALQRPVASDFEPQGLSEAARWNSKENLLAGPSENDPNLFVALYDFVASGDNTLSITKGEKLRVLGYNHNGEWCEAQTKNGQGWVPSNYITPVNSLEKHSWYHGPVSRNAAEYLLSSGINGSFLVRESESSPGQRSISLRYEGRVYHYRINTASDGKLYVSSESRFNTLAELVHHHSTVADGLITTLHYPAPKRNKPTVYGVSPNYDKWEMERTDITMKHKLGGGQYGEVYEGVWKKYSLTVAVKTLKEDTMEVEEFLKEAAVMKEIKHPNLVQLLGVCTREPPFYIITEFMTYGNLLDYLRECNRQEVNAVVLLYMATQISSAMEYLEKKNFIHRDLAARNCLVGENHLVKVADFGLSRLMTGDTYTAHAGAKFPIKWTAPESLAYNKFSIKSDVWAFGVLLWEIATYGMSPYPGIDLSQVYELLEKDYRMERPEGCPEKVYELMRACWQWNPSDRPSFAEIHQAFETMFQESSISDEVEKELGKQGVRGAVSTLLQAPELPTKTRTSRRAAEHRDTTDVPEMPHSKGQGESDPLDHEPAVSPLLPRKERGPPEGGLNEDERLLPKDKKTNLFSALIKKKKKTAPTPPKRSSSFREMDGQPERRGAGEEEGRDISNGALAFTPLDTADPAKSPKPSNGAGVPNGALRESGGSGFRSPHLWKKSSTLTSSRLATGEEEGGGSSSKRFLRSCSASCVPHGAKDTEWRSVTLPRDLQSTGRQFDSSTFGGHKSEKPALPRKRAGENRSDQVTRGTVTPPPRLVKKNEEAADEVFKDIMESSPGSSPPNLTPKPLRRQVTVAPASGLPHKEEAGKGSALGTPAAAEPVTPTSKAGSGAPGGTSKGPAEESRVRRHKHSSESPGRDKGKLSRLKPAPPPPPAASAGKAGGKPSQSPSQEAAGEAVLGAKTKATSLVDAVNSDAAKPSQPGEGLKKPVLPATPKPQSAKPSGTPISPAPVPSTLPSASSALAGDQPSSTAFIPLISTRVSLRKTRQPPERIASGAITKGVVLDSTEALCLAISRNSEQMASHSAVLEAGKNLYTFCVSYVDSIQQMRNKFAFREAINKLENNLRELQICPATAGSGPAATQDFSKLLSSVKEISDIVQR

[35] = AUC (0 to last) in cynomolgus monkey plasma administered 0.5% suspension using 30 uL topical drop to both eyes as single dose by LC-MS/MS analysis; format: ADME, Macaca fascicularis; design: dose 30 uL, route ophthalmic, time 0 - last; details: topical or ocular, 30 uL of 0.5% suspension per eye
[36] = Cmax in cynomolgus monkey plasma administered 0.5% suspension using 30 uL topical drop to both eyes as single dose by LC-MS/MS analysis; format: ADME, Macaca fascicularis; design: dose 30 uL, route ophthalmic; details: topical or ocular, 30 uL of 0.5% suspension per eye
[37] = Plasma concentration in cynomolgus monkey administered 0.5% suspension using 30 uL topical drop to both eyes as single dose measured over 24 hrs by LC-MS/MS analysis; format: ADME, cell-free, Macaca fascicularis; details: topical or ocular, 30 uL of 0.5% suspension per eye
[38] = Tmax in cynomolgus monkey plasma administered 0.5% suspension using 30 uL topical drop to both eyes as single dose by LC-MS/MS analysis; format: ADME, Macaca fascicularis; details: topical or ocular, 30 uL of 0.5% suspension per eye
[39] = AUC (0 to last) in cynomolgus monkey plasma administered 0.5% suspension using 30 uL topical drop to both eyes every 3 hrs for 9 hrs over 5 days and single drop to each eye on day 6 by LC-MS/MS analysis; format: ADME, Macaca fascicularis; details: topical or ocular, 30 uL of 0.5% suspension per eye
[40] = Cmax in cynomolgus monkey plasma administered 0.5% suspension using 30 uL topical drop to both eyes every 3 hrs for 9 hrs over 5 days and single drop to each eye on day 6 by LC-MS/MS analysis; format: ADME, Macaca fascicularis; details: topical or ocular, 30 uL of 0.5% suspension per eye
Plasma = experiment: Plasma concentration in cynomolgus monkey administered 0.5% suspension using 30 uL topical drop to both eyes every 3 hrs for 9 hrs over 5 days and single drop to each eye on day 6 by LC-MS/MS analysis; format: ADME, cell-free, Macaca fascicularis; details: topical_or_ocular
[41] = Tmax in cynomolgus monkey plasma administered 0.5% suspension using 30 uL topical drop to both eyes every 3 hrs for 9 hrs over 5 days and single drop to each eye on day 6 by LC-MS/MS analysis; format: ADME, Macaca fascicularis; details: topical or ocular, 30 uL of 0.5% suspension per eye
Cynomolgus monkey [42] = experiment: Toxicity in cynomolgus monkey anterior region of eye administered 0.5% suspension using 30 uL topical drop to both eyes every 3 hrs for 9 hrs over 5 days by slit lamp biomicroscopic method; design: species or system Macaca fascicularis; details: in vivo, topical_or_ocular
Cynomolgus monkey [43] = experiment: Toxicity in cynomolgus monkey adnexa region of eye administered 0.5% suspension using 30 uL topical drop to both eyes every 3 hrs for 9 hrs over 5 days by slit lamp biomicroscopic method; design: species or system Macaca fascicularis; details: in vivo, topical_or_ocular
Cynomolgus monkey [44] = experiment: Toxicity in cynomolgus monkey ocular fundus administered 0.5% suspension using 30 uL topical drop to both eyes every 3 hrs for 9 hrs over 5 days by indirect ophthalmoscopic method; design: species or system Macaca fascicularis; details: in vivo, topical_or_ocular

Compound: O=C(Nc1cc(C2(CO)CC2)on1)n1ccc2cc(Oc3ncnc4c3CNC4)ccc21
- inhibition (Mus musculus): inactive

Compound: CC(=O)N1Cc2ncnc(Oc3ccc4c(ccn4C(=O)Nc4cc(C5CC5)on4)c3)c2C1
- inhibition (Rattus norvegicus [26]): inactive

Compound: CC(=O)N1Cc2ncnc(Oc3ccc4c(ccn4C(=O)Nc4cc(C5CC5)on4)c3)c2C[C@@H]1C
- inhibition (INH) (Rattus norvegicus [27]): 50%
- solubility [28]: 0.6 µM (≈ 0.284 µg/mL)
- inhibition (INH) (Rattus norvegicus [29]): 55%
- IC50 [30]: < 500 nM
- IC50 [31]: < 500 nM
- IC50 [32]: < 500 nM
- IC50 [33]: < 500 nM
- IC50 [34]: < 500 nM
- AUC(0-t) [1]: 8.97 µM·h
- Cmax [2]: 2860 nM
- AUC(0-t) [3]: 0.22 µM·h
- Cmax [4]: 150 nM
- AUC(0-t) [5]: 0.449 µM·h
- Cmax [6]: 51.6 nM
- AUC(0-t) [7]: 29.5 µM·h
- Cmax [8]: 4730 nM
- AUC(0-t) [9]: 0.764 µM·h
- Cmax [10]: 138 nM
- AUC(0-t) [11]: 0.923 µM·h
- Cmax [12]: 78.6 nM
- AUC(0-t) [35]: 1.07 µM·h
- Cmax [36]: 65.8 nM
- concentration at 24 h [37]: 64 nM
- Tmax [38]: 11 h
- AUC(0-t) [39]: 2.51 µM·h
- Cmax [40]: 228 nM
- concentration (Plasma): 84.4 nM
- Tmax [41]: 3 h
- Activity (Cynomolgus monkey [42]): Non-Toxic
- Activity (Cynomolgus monkey [43]): Non-Toxic
- Activity (Cynomolgus monkey [44]): Non-Toxic

Compound: O=C(Nc1cc(C2CCOCC2)on1)n1ccc2cc(Oc3ncnc4c3CNC4)ccc21
- inhibition (Mus musculus): inactive

More lines, main results first:

- AUC(0-t) [1]: 52 µM·h
- Cmax [2]: 5690 nM
- AUC(0-t) [3]: 4.63 µM·h
- Cmax [4]: 683 nM
- AUC(0-t) [5]: 0.0343 µM·h
- Cmax [6]: 36.6 nM
- AUC(0-t) [7]: 515 µM·h
- Cmax [8]: 31800 nM
- AUC(0-t) [9]: 14.3 µM·h
- Cmax [10]: 1910 nM
- AUC(0-t) [11]: 0.0244 µM·h
- Cmax [12]: 32.1 nM
- microsomal CLint at 1 µM [13]: 156 µL/min/mg
- AUC(0-t) at 6 h [18]: 0.0644 µM·h
- Cmax [19]: 26.9 nM
- half-life [20]: 1.61 h
- Tmax [21]: 0.67 h
- AUC(0-t) at 6 h [22]: 0.0227 µM·h
- Cmax [23]: 5.38 nM
- half-life [24]: 4.38 h
- Tmax [25]: 1.67 h
Compound: CNCc1cc(Oc2ccc3c(ccn3C(=O)Nc3cc(C(F)(F)F)n(C)n3)c2)ncn1
- inhibition (INH) (Rattus norvegicus [14]): 94%
- ED50 (Rattus norvegicus [15]): 1.4%
- ED50 (Rattus norvegicus [16]): 0.5%
- ED90 (Rattus norvegicus [16]): 1.2%
- ED50 (Rattus norvegicus [17]): 1%
- ED90 (Rattus norvegicus [17]): 2.6%

- microsomal CLint at 1 µM [13]: 43 µL/min/mg
Compound: CNCc1cc(Oc2ccc3c(ccn3C(=O)Nc3cccc(C(F)(F)F)c3)c2)ncn1

- microsomal CLint at 1 µM [13]: 91 µL/min/mg
Compound: CNCc1cc(Oc2ccc3c(ccn3C(=O)Nc3cc(C4(C)CC4)on3)c2)ncn1
